Assay results taken from paper PMC8456958, “Selective Bacterial Targeting and Infection‐Triggered Release of Antibiotic Colistin Conjugates” (Angewandte Chemie (International Ed. in English), 2021).
≈ marks a conversion by molar mass, not a printed value.

Assays:
[1] = tested on: E. coli K12; type: cell-based, Escherichia coli; conditions: for MIC with 10 mU mL^−1 Elastase / MIC with 100 mU mL^−1 Elastase / MIC without Elastase: Table 2, E. coli K12, conservative MIC readouts of at least three independent biological experiments
Protocol: Determination of antibacterial activities by broth dilution assay
Bacterial suspensions at 5-6 x 10^5 CFU (1:1000 dilution of a bacterial suspension of OD600 = 1) in T-medium were incubated in volumes of 200 µl in sterile clear 96-well microtiter plates at 37 °C in a wet chamber with serial dilution of peptide-colistin constructs and controls (32 – 0.016 µM) for 18 h.
External neutrophil elastase was added at 10 mU/ml or 100 mU/ml to each well at the start of incubation, where indicated. After the incubation, the plate was placed for 5 min on a MTP shaker to generate homogenous bacterial suspensions. OD600 was then determined in a microplate reader. The wells with the lowest compound concentration without growth defined the MICs. […]
Figure S7. Heat plot of the growth of E. coli K12 and E. coli DSM 1116 in presence of 6. Rows A-D: E. coli K12; Rows E-H: E. coli DSM 1116; A + E colistin; B + F peptide-colistin construct 6; C + G peptide-colistin construct 6 + 10 mU/ml elastase; D + H bacteria without compounds. The numbers below the heatplot depict the concentration of colistin and peptides in µM. Conditions: T medium, incubation 20 h at 37 °C in wet chamber; inoculum: cultures at OD = 1.0 diluted 1:1000 (5-6 x 10^5 CFU/ml). […]
Figure S10. Heat plot of the growth of E. coli in presence of 48 and 49. Row A: E. coli K12 without added compounds; B colistin B; C peptide-colistin construct 49; D peptide-colistin construct 49 + 10 mU/ml elastase; E ElsaSub-colistin; F 48 with 10 mU elastase; G 4; H 4 with […]. The numbers depict the concentration of colistin and peptides in µM. Conditions: T medium, incubation 17.5 h at 37 °C in wet chamber; inoculum 5-6 x 10^5 CFU/ml. […]
with elastase 10 mU/ml pos-1-isomer (22) […]
with elastase 10 mU/ml pos-3-isomer (28) […]
with elastase 10 mU/ml pos-5-isomer (34) […]
with elastase 10 mU/ml pos-8-isomer (40) […]
with elastase 10 mU/ml pos-9-isomer (46)
Figure S11. Heat plot of the growth of E. coli in presence of positional isomers obtained by total chemical synthesis. Conditions: T medium, incubation for 20 h at 37 °C in wet chamber; inoculum 5-6 x 10^5 CFU/ml. Addition of neutrophil elastase at 10 and 100 mU/ml, as indicated. Concentrations of isomers stated below the heat plot in µg/ml. […]

[2] = tested on: E. coli K12, A. baumannii, P. aeruginosa PA14; assay: Quantification of bacterial binding of fluorescently labelled compounds; type: cell-based; conditions: 1 μM in PBS, rt, 1 h incubation, washing, 485/520 nm
Protocol: Figure 4 Staining of Gram‐negative bacteria with fluorescently labeled colistin conjugates. a) Three Gram‐negative bacteria (E. coli K12, A. baumannii, P. aeruginosa PA14) were grown in T‐medium, to an OD600 of 1.0, and the fluorescently labeled compounds were added (1 μM in PBS, rt, 1 h incubation), followed by washing steps and a quantification of fluorescence in the wells. C‐Fluo: 5(6)‐carboxyfluorescein. […] An overlay of fluorescence (485/520 nm) and phase contrast pictures is shown. […]
Cell counting: 20 µl of a cell suspension were mixed with 20 µl Cedex Tryptan Blue Solution. 10 µl of the mixture were measured automatically in a cell counter (Cedex XS Cell Analyzer, Roche) in duplicate.
Quantification of bacterial binding of fluorescently labelled compounds The bacterial strains A. baumannii, E. coli K12 and P. aeruginosa PA14 were cultivated in T-medium at 37 °C to exponential growth (OD600 = 2-3). […] Afterwards, the bacteria were washed twice with PBS, suspended at OD600 = 0.2 in PBS and fluorescence was measured at 485/520 nm with 200 µl of bacterial suspensions in black 96-well microtiter plates from above in triplicate. […]

Compound | MIC with 10 mU mL^−1 Elastase [1] | MIC with 100 mU mL^−1 Elastase [1] | MIC without Elastase [1] | other results
CC[C@H](NC(=O)[C@@H]1C[C@@H]2CCCC[C@@H]2N1C(=O)[C@H](CCS(C)(=O)=O)NC(=O)[C@H](Cc1ccc(C(=O)c2ccccc2)cc1)NC(=O)CCc1cn(CCCC[C@@H](NC(=O)CCNC(=O)[C@@H](CCCNC(=N)N)NC(=O)[C@@H](CCCNC(=N)N)NC(=O)[C@@H](CC(N)=O)NC(=O)[C@@H](Cc2ccc(O)cc2)NC(=O)[C@@H](CCC(N)=O)NC(=O)[C@@H](CCSC)NC(=O)[C@@H](CCCNC(=N)N)NC(=O)[C@@H](CCCNC(=N)N)NC(=O)[C@@H](CCCCN)NC(=O)[C@@H](C)NC(=O)[C@@H](CCCNC(=N)N)NC(=O)CNC(=O)[C@H](N)[C@H](C)O)C(N)=O)nn1)C(=O)NCC[C@@H]1NC(=O)[C@H](CCN)NC(=O)[C@H](CC(C)C)NC(=O)[C@@H](CC(C)C)NC(=O)[C@H](CCN)NC(=O)[C@@H](NC(=O)[C@H](CCN)NC(=O)[C@@H](NC(=O)[C@H](CCN)NC(=O)CCCCC(C)C)[C@@H](C)O)CCNC(=O)[C@H]([C@@H](C)O)NC1=O [Compound 46] | 32 µM | 8 µM | >32 µM | 
CC[C@H](NC(=O)[C@@H]1C[C@@H]2CCCC[C@@H]2N1C(=O)[C@H](CCS(C)(=O)=O)NC(=O)[C@H](Cc1ccc(C(=O)c2ccccc2)cc1)NC(=O)CCc1cn(CCCC[C@@H](NC(=O)CCNC(=O)[C@@H](CCCNC(=N)N)NC(=O)[C@@H](CCCNC(=N)N)NC(=O)[C@@H](CC(N)=O)NC(=O)[C@@H](Cc2ccc(O)cc2)NC(=O)[C@@H](CCC(N)=O)NC(=O)[C@@H](CCSC)NC(=O)[C@@H](CCCNC(=N)N)NC(=O)[C@@H](CCCNC(=N)N)NC(=O)[C@@H](CCCCN)NC(=O)[C@@H](C)NC(=O)[C@@H](CCCNC(=N)N)NC(=O)CNC(=O)[C@H](N)[C@H](C)O)C(N)=O)nn1)C(=O)NCC[C@H](NC(=O)[C@@H](NC(=O)[C@H](CCN)NC(=O)CCCCC(C)C)[C@@H](C)O)C(=O)N[C@H]1CCNC(=O)[C@H]([C@@H](C)O)NC(=O)[C@H](CCN)NC(=O)[C@H](CCN)NC(=O)[C@H](CC(C)C)NC(=O)[C@@H](CC(C)C)NC(=O)[C@H](CCN)NC1=O [Compound 28] | 0.25 µM | 0.125 µM | 8 µM (≈ 30.4 µg/mL) | 
CC[C@H](NC(=O)[C@@H]1C[C@@H]2CCCC[C@@H]2N1C(=O)[C@H](CCS(C)(=O)=O)NC(=O)[C@H](Cc1ccc(C(=O)c2ccccc2)cc1)NC(=O)CCc1cn(CCCC[C@@H](NC(=O)CCNC(=O)[C@@H](CCCNC(=N)N)NC(=O)[C@@H](CCCNC(=N)N)NC(=O)[C@@H](CC(N)=O)NC(=O)[C@@H](Cc2ccc(O)cc2)NC(=O)[C@@H](CCC(N)=O)NC(=O)[C@@H](CCSC)NC(=O)[C@@H](CCCNC(=N)N)NC(=O)[C@@H](CCCNC(=N)N)NC(=O)[C@@H](CCCCN)NC(=O)[C@@H](C)NC(=O)[C@@H](CCCNC(=N)N)NC(=O)CNC(=O)[C@H](N)[C@H](C)O)C(N)=O)nn1)C(=O)NCC[C@@H]1NC(=O)[C@H](CC(C)C)NC(=O)[C@@H](CC(C)C)NC(=O)[C@H](CCN)NC(=O)[C@@H](NC(=O)[C@H](CCN)NC(=O)[C@@H](NC(=O)[C@H](CCN)NC(=O)CCCCC(C)C)[C@@H](C)O)CCNC(=O)[C@H]([C@@H](C)O)NC(=O)[C@H](CCN)NC1=O [Compound 40] | >32 µM | 32 µM | >32 µM | 
4-pentinoyl-ßAla-Ala-Ala-Pro-Val-colistin B (lariat or depsi) [Compound 48] |  |  |  | MIC ([1]; E. coli K12, T medium, 17.5 h at 37 °C (Figure S10), text does not say with or without elastase): 16 µM
CC[C@H](NC(=O)[C@@H]1C[C@@H]2CCCC[C@@H]2N1C(=O)[C@H](CCS(C)(=O)=O)NC(=O)[C@H](Cc1ccc(C(=O)c2ccccc2)cc1)NC(=O)CCc1cn(CCCC[C@@H](NC(=O)CCNC(=O)[C@@H](CCCNC(=N)N)NC(=O)[C@@H](CCCNC(=N)N)NC(=O)[C@@H](CC(N)=O)NC(=O)[C@@H](Cc2ccc(O)cc2)NC(=O)[C@@H](CCC(N)=O)NC(=O)[C@@H](CCSC)NC(=O)[C@@H](CCCNC(=N)N)NC(=O)[C@@H](CCCNC(=N)N)NC(=O)[C@@H](CCCCN)NC(=O)[C@@H](C)NC(=O)[C@@H](CCCNC(=N)N)NC(=O)CNC(=O)[C@H](N)[C@H](C)O)C(N)=O)nn1)C(=O)NCC[C@H](NC(=O)CCCCC(C)C)C(=O)N[C@H](C(=O)N[C@@H](CCN)C(=O)N[C@H]1CCNC(=O)[C@H]([C@@H](C)O)NC(=O)[C@H](CCN)NC(=O)[C@H](CCN)NC(=O)[C@H](CC(C)C)NC(=O)[C@@H](CC(C)C)NC(=O)[C@H](CCN)NC1=O)[C@@H](C)O [Compound 22] | 0.125 µM | 0.063 µM | 4 µM (≈ 15.2 µg/mL) | 
CC[C@H](NC(=O)[C@@H]1C[C@@H]2CCCC[C@@H]2N1C(=O)[C@H](CCS(C)(=O)=O)NC(=O)[C@H](Cc1ccc(C(=O)c2ccccc2)cc1)NC(=O)CCc1cn(CCCC[C@@H](NC(=O)CCNC(=O)[C@@H](CCCNC(=N)N)NC(=O)[C@@H](CCCNC(=N)N)NC(=O)[C@@H](CC(N)=O)NC(=O)[C@@H](Cc2ccc(O)cc2)NC(=O)[C@@H](CCC(N)=O)NC(=O)[C@@H](CCSC)NC(=O)[C@@H](CCCNC(=N)N)NC(=O)[C@@H](CCCNC(=N)N)NC(=O)[C@@H](CCCCN)NC(=O)[C@@H](C)NC(=O)[C@@H](CCCNC(=N)N)NC(=O)CNC(=O)[C@H](N)[C@H](C)O)C(N)=O)nn1)C(=O)NCC[C@@H]1NC(=O)[C@@H](NC(=O)[C@H](CCN)NC(=O)[C@@H](NC(=O)[C@H](CCN)NC(=O)CCCCC(C)C)[C@@H](C)O)CCNC(=O)[C@H]([C@@H](C)O)NC(=O)[C@H](CCN)NC(=O)[C@H](CCN)NC(=O)[C@H](CC(C)C)NC(=O)[C@@H](CC(C)C)NC1=O [Compound 34] | 4 µM | 4 µM | >32 µM | 
Neutrophil elastase: Neutrophil Elastase (human), affinity purified, USBiological |  |  |  | antimicrobial activity of neutrophil elastase alone ([1]; elastase alone, two strains of E. coli (K12 and DSM 1116)): did not display any antimicrobial activity
(all-D) T-G-R-A-K-R-R-M-Q-Y-N-R-R-ßAla-norleucinamide(1H-1,2,3-triazol-4-yl)propionyl-ßAla-L-Ala-L-Ala-L-Pro-L-Val-colistin B [Compound 49] |  |  |  | antimicrobial activity (MIC) in the presence of neutrophil elastase ([1]; E. coli K12, 10 mU/ml elastase, T medium, 17.5 h at 37 °C (Figure S10)): > 32 µM; antimicrobial activity (MIC) in the absence of neutrophil elastase ([1]; E. coli K12, T medium, 17.5 h at 37 °C (Figure S10)): > 32 µM
5(6)‐carboxyfluorescein |  |  |  | bacterial binding (fluorescence), in words [2]: did hardly show binding above background
